# Laboratory results: ChEMBL document CHEMBL5042474, “Structure-Guided Discovery of Potent and Selective DYRK1A Inhibitors” (J Med Chem, 2021)
# Legend:
# RS4-11 [1] = test: Antitumor activity against human RS4-11 cells xenografted in BALB/c nu/nu mouse assessed as reduction in DYRK1A autophosphorylation of S520 residue at 25 mg/kg, po measured after 6 hrs by western blotting analysis relative to control; format: functional; parameters: scale not given: the % may be the effect or the level left
# [2] = Plasma clearance in BALB/c nu/nu mouse at 3 mg/kg, po; format: ADME, organism-based
# A2780 [3] = test: Antitumour activity against human A2780 cells xenografted in mouse assessed as reduction in DYRK1A autophosphorylation of S520 residue at 4.687 mg/kg, po meausred after 6 hrs by western blotting analysis relative to control; format: functional; parameters: scale not given: the % may be the effect or the level left
# [4] = target: Dual specificity protein kinase CLK2 (Homo sapiens) (UniProt P49760); test: Residual activity of CLK2 (unknown origin) at 10 nM using Ulight-MBP as substrate and ATP as co-substrate incubated for 40 mins and measured after 1 hr by TR-FRET assay relative to control; conditions: time 100.0 min
# Dual specificity protein kinase CLK2 (Homo sapiens), sequence (P49760 whole entry, looked up): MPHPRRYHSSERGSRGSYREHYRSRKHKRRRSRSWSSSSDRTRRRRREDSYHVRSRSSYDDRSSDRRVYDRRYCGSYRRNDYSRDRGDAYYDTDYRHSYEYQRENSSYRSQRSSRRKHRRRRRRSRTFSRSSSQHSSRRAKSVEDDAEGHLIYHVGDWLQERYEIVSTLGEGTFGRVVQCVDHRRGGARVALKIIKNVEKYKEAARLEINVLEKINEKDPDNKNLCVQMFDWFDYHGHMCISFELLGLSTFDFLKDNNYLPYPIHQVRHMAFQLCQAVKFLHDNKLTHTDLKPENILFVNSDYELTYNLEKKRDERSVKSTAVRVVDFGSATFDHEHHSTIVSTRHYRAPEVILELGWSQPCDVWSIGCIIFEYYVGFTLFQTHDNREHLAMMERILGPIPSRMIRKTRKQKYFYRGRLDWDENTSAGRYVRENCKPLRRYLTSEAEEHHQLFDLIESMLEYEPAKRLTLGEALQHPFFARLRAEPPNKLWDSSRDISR
# [5] = target: Homeodomain-interacting protein kinase 1 (Homo sapiens) (UniProt Q86Z02); test: Residual activity of HIPK1 (unknown origin) at 10 nM using Ulight-MBP as substrate and ATP as co-substrate incubated for 40 mins and measured after 1 hr by TR-FRET assay relative to control; conditions: time 100.0 min
# Homeodomain-interacting protein kinase 1 (Homo sapiens), sequence (Q86Z02 whole entry, looked up): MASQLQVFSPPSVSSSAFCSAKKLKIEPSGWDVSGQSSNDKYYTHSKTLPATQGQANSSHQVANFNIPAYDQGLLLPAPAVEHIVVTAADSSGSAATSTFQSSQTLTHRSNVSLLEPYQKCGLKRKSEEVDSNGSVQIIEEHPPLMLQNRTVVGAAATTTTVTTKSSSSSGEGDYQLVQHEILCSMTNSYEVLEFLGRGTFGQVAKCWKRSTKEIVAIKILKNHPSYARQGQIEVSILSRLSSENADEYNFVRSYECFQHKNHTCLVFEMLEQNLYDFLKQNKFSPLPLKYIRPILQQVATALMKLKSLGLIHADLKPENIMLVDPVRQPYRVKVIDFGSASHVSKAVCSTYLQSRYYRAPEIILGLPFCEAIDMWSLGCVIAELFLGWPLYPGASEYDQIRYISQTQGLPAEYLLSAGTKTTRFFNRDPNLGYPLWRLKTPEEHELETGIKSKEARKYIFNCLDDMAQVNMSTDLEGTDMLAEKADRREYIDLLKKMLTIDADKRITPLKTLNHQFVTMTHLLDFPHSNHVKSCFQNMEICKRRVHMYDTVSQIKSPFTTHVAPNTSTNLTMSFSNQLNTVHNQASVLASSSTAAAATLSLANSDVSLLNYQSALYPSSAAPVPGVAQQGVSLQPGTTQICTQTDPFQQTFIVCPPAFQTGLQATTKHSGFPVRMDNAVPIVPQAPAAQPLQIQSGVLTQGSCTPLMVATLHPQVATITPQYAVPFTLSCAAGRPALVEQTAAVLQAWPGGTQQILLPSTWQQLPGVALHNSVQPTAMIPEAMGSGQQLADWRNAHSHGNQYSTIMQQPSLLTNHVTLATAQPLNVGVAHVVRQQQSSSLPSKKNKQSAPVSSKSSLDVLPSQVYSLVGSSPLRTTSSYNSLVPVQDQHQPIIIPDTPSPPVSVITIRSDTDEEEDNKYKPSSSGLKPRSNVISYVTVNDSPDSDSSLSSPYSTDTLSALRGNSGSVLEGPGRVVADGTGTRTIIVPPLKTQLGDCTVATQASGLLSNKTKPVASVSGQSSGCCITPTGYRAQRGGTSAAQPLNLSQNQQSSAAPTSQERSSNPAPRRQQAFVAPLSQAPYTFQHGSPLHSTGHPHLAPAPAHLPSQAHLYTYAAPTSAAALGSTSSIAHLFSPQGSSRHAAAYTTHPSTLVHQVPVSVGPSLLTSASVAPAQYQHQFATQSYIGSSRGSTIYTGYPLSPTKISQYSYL
# A2780 [6] = test: Antitumor activity against human A2780 cells xenografted in Balb/c mouse assessed as inhibition of tumor growth at 9.5 mg/kg, po bid for 14 days relative to control; format: functional; conditions: 336 h, time 14 day, read-out: TGI
# [7] = target: Dual specificity tyrosine-phosphorylation-regulated kinase 1B (Homo sapiens) (UniProt Q9Y463); test: Residual activity of DYRK1B (unknown origin) at 10 nM using Ulight-MBP as substrate and ATP as co-substrate incubated for 40 mins and measured after 1 hr by TR-FRET assay relative to control; conditions: time 100.0 min
# Dual specificity tyrosine-phosphorylation-regulated kinase 1B (Homo sapiens), sequence (Q9Y463 whole entry, looked up): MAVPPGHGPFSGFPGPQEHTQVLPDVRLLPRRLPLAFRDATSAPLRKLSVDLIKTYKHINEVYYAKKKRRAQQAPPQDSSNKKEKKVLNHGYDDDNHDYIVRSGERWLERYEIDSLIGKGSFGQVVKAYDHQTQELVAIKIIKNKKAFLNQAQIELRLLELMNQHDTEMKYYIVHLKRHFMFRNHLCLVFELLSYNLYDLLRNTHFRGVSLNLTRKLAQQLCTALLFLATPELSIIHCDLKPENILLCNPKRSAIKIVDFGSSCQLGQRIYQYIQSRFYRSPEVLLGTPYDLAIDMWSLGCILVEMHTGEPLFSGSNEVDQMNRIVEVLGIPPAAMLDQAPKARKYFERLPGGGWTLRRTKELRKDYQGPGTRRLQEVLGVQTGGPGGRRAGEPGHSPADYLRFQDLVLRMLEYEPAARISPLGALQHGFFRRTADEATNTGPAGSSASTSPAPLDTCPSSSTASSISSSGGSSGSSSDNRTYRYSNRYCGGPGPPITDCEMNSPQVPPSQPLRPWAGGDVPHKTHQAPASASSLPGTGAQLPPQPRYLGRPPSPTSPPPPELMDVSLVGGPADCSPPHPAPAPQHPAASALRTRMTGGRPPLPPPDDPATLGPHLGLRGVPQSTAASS
# RS4-11 [8] = test: Antitumor activity against human RS4-11 cells xenografted in BALB/c nu/nu mouse assessed as reduction in DYRK1A autophosphorylation of S520 residue at 25 mg/kg, po measured after 2 hrs by western blotting analysis relative to control; format: functional; parameters: scale not given: the % may be the effect or the level left
# RS4-11 [9] = test: Antitumor activity against human RS4-11 cells xenografted in BALB/c nu/nu mouse assessed as reduction in DYRK1A autophosphorylation of S520 residue at 12.5 mg/kg, po measured after 2 hrs by western blotting analysis relative to control; format: functional; parameters: scale not given: the % may be the effect or the level left
# [10] = Toxicity in Balb/c nude mouse xenografted with human A2780 cells assessed as decrease in body weight at 18.75 mg/kg, po bid for 14 days relative to control; format: organism-based; parameters: scale not given: the % may be the effect or the level left; conditions: in vivo, 336 h, time 14 day
# A2780 [11] = test: Antitumor activity against human A2780 cells xenografted in Balb/c mouse assessed as tumor volume T/C at 4.75 mg/kg, po bid for 14 days relative to control; conditions: time 14 day
# [12] = Toxicity in Balb/c nude mouse xenografted with human A2780 cells assessed as decrease in body weight at 37.5 mg/kg, po bid for 14 days relative to control; format: organism-based; parameters: scale not given: the % may be the effect or the level left; conditions: in vivo, 336 h, time 14 day
# A2780 [13] = test: Antitumor activity against human A2780 cells xenografted in Balb/c mouse assessed as inhibition of tumor growth at 75 mg/kg, po bid for 14 days relative to control; format: functional; conditions: 336 h, time 14 day, read-out: TGI
# [14] = target: Ribosomal protein S6 kinase alpha-4 (Homo sapiens) (UniProt O75676); test: Residual activity of RPS6KA4 (unknown origin) at 10 nM using Ulight-MBP as substrate and ATP as co-substrate incubated for 40 mins and measured after 1 hr by TR-FRET assay relative to control; conditions: time 100.0 min
# Ribosomal protein S6 kinase alpha-4 (Homo sapiens), sequence (O75676 whole entry, looked up): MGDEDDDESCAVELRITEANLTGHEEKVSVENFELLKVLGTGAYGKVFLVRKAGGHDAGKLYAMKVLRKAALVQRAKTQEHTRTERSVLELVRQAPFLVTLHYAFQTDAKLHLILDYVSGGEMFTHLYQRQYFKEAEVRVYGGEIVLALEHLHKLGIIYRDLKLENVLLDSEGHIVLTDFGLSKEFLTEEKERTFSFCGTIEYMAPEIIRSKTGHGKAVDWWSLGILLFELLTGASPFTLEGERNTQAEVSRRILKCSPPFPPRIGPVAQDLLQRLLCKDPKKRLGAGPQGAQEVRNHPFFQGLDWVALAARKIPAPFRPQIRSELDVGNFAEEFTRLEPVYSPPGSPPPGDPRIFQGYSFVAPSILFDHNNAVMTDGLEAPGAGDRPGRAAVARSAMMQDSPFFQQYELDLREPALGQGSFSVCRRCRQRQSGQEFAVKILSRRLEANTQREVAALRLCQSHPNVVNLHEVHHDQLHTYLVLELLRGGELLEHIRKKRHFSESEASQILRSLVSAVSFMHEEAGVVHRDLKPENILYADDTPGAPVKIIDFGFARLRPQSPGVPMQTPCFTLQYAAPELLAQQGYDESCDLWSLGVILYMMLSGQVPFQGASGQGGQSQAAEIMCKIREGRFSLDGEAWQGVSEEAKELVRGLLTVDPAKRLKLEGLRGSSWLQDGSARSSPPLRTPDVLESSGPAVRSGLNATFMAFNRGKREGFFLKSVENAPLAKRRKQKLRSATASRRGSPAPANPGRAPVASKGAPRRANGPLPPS
# A2780 [15] = test: Antitumour activity against human A2780 cells xenografted in Balb/c mouse assessed as tumor volume T/C at 9.5 mg/kg, po bid for 14 days relative to control; conditions: time 14 day
# A2780 [16] = test: Antitumour activity against human A2780 cells xenografted in BALB/c nu/nu mouse assessed as reduction in DYRK1A autophosphorylation of S520 residue at 9.375 mg/kg, po measured after 6 hrs by western blotting analysis relative to control; format: functional; parameters: scale not given: the % may be the effect or the level left
# A2780 [17] = test: Antitumor activity against human A2780 cells xenografted in BALB/c […] mouse assessed as reduction in DYRK1A autophosphorylation of S520 residue at 37.5 mg/kg, po measured after 6 hrs by western blotting analysis relative to control; format: functional; parameters: scale not given: the % may be the effect or the level left
# A2780 [18] = test: Antitumor activity against human A2780 cells xenografted in BALB/c nu/nu mouse assessed as reduction in DYRK1A autophosphorylation of S520 residue at 37.5 mg/kg, po measured after 2 hrs by western blotting analysis relative to control; format: functional; parameters: scale not given: the % may be the effect or the level left
# A2780 [19] = test: Antitumor activity against human A2780 cells xenografted in BALB/c […] mouse assessed as reduction in DYRK1A autophosphorylation of S520 residue at 75 mg/kg, po measured after 2 hrs by western blotting analysis relative to control; format: functional; parameters: scale not given: the % may be the effect or the level left
# A2780 [20] = test: Antitumour activity against human A2780 cells xenografted in Balb/c mouse assessed as tumour volume T/C at 37.5 mg/kg, po bid for 14 days relative to control; conditions: time 14 day
# [21] = Toxicity in Balb/c nude mouse xenografted with human A2780 cells assessed as decrease in body weight at 75 mg/kg, po bid for 14 days relative to control; format: organism-based; parameters: scale not given: the % may be the effect or the level left; conditions: in vivo, 336 h, time 14 day
# RS4-11 [22] = test: Antitumor activity against human RS4-11 cells xenografted in BALB/c nu/nu mouse assessed as reduction in DYRK1A autophosphorylation of S520 residue at 12.5 mg/kg, po measured after 6 hrs by western blotting analysis relative to control; format: functional; parameters: scale not given: the % may be the effect or the level left
# A2780 [23] = test: Antitumor activity against human A2780 cells xenografted in BALB/c nu/nu mouse assessed as reduction in DYRK1A autophosphorylation of S520 residue at 9.375 mg/kg, po measured after 2 hrs by western blotting analysis relative to control; format: functional; parameters: scale not given: the % may be the effect or the level left
# RS4-11 [24] = test: Antitumor activity against human RS4-11 cells xenografted in BALB/c nu/nu mouse assessed as reduction in DYRK1A autophosphorylation of S520 residue at 6.25 mg/kg, po measured after 2 hrs by western blotting analysis relative to control; format: functional; parameters: scale not given: the % may be the effect or the level left
# A2780 [25] = test: Antitumor activity against human A2780 cells xenografted in Balb/c mouse assessed as inhibition of tumor growth at 18.75 mg/kg, po bid for 14 days relative to control; format: functional; conditions: 336 h, time 14 day, read-out: TGI
# A2780 [26] = test: Antitumor activity against human A2780 cells xenografted in Balb/c mouse assessed as tumor volume T/C at 75 mg/kg, po bid for 14 days relative to control; conditions: time 14 day
# C-33-A = test: cells; conditions: Homo sapiens, 120 h
structure (smiles),measurement,setting,value
Cc1nc2ccc(-c3cc(N)nc(N)c3)nc2n1C1CC1,Activity,RS4-11 [1],91%
same,CL/F,[2],226 mL/min/kg
same,Activity,A2780 [3],0%
same,residual activity,[4],40%
same,residual activity,[5],72%
same,inhibition in vivo at 9.5 mg/kg,A2780 [6],28%
same,residual activity,[7],20%
same,Activity,RS4-11 [8],87%
same,Activity,RS4-11 [9],87%
same,Activity,[10],10.7%
same,T/C,A2780 [11],91%
same,Activity,[12],9.7%
same,inhibition in vivo at 75 mg/kg,A2780 [13],92%
same,residual activity,[14],61%
same,T/C,A2780 [15],95%
same,Activity,A2780 [16],10%
same,Activity,A2780 [17],95%
same,Activity,A2780 [18],82%
same,Activity,A2780 [19],80%
same,T/C,A2780 [20],52%
same,Activity,[21],16.3%
same,Activity,RS4-11 [22],84%
same,Activity,A2780 [23],60%
same,Activity,RS4-11 [24],77%
same,inhibition in vivo at 18.75 mg/kg,A2780 [25],55%
same,T/C,A2780 [26],24%
same,IC50,C-33-A,1020 nM
